Where a name gives a salt, the structure may show the parent alone. Read-outs that look alike come from different tables or passages of the source.
Key:
[1] = target: cloned human kappa receptor (Homo sapiens, UniProt P41145); assay: biochemical; assay type: binding
[2] = system: formalin-induced flinching; assay: animal or person; assay type: in vivo, male Sprague-Dawley rats; conditions: for inhibition in vivo at 0.3 µM: Rattus norvegicus, read-out: Formalin (% A @ 300 nM) i. paw; for Formalin A50 mg/kg s.c.: sc
[3] = read-out: Ki(nM) [3H]-Diprenorphin κ

Sequence of cloned human kappa receptor (P41145 whole entry): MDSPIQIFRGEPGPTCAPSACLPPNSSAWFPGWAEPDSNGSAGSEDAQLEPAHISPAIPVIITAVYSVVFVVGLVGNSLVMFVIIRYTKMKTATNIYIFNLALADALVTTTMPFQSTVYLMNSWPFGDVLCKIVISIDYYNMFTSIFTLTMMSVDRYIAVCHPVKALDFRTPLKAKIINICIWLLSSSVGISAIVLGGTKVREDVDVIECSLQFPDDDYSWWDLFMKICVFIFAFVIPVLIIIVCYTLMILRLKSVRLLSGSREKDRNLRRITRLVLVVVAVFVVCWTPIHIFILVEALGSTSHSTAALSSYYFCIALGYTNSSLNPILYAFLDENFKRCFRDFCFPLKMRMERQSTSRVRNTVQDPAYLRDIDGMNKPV

| Compound | Ki ([1]; Ki (nM) [3H]-Diprenorphin κ) [nM] | Late Phase Formalin (i. paw), % @ 300 ([2]; rat, in vivo) [% @ 300] | also measured |
| --- | --- | --- | --- |
| CS(=O)(=O)O[C@H]1CCN(CC2CN(S(C)(=O)=O)CCN2C(=O)Cc2ccc(Cl)c(Cl)c2)C1 (stereo partly drawn) [Example 1jj, 4-Methanesulfonyl-1-[(3,4-dichlorophenyl)acetyl]-2-(R,S)-[3-(S)-methanesulfonate-1-(pyrrolidinyl)methyl]piperazine hydrochloride] |  |  | Ki ([1]; Ki, nM 3H-Diprenorphin): 11.5 nM; inhibition in vivo at 0.3 µM [2]: 49% |
| CS(=O)(=O)N1CCN(C(=O)Cc2ccc(Cl)c(Cl)c2)C(CN2CC[C@H](OC(=O)Cc3ccc(Cl)c(Cl)c3)C2)C1 (stereo partly drawn) [Example 1kk, 4-Methylsulphonyl-1-[(3,4-dichlorophenyl)acetyl]-2-(R,S)-[3-(S)-(3′,4′dichlorophenyl acetate)-1-(pyrrolidinyl)methyl]piperazine hydrochloride] |  |  | Ki ([1]; Ki, nM 3H-Diprenorphin): 5.1 nM; inhibition in vivo at 0.3 µM [2]: 52% |
| COC(=O)N1CCN(C(=O)Cc2ccc(Cl)c(Cl)c2)C(CN2CCCC2CO)C1 [Example 1l, Methyl-4-[(3,4-dichlorophenyl)acetyl]-3-(R)-[(2-(S)-pyrrolidinemethanol)methyl]-1-piperazinecarboxylate hydrochloride] |  |  | Ki ([1]; Ki, nM 3H-Diprenorphin): 3.5 nM; Formalin A50 mg/kg s.c. ([2]; rat, in vivo): 1.7 mg/kg |
| CS(=O)(=O)N1CCN(C(=O)Cc2ccc(C(F)(F)F)cc2)C(CN2CC[C@H](O)C2)C1 (stereo partly drawn) [Example 1nn, 4-Methylsulphonyl-1-[(4-α,α,α-triflouromethylphenyl)acetyl]-2-(R,S)-[(3-(S)-hydroxy-1-pyrrolidinyl)methyl]piperazine hydrochloride] |  |  | Ki ([1]; Ki, nM 3H-Diprenorphin): 2.33 nM; Formalin A50 mg/kg s.c. ([2]; rat, in vivo): 7.1 mg/kg |
| CCOP(=O)(Nc1cccc([C@@H](CN2CCCC2)N(C)C(=O)Cc2ccc(Cl)c(Cl)c2)c1)OCC [Example 3g, 2-(3,4-Dichlorophenyl)-N-methyl-N-[(1S)-1-[3-(diethyl Phosphoryl)amino]phenyl)-2-(1-pyrrolidinyl)ethyl]acetamide hydrochloride] | 0.12 |  | Late Phase Formalin A50 ([2]; rat, in vivo): 4.4 mg/kg |
| CC(C)COC(=O)CNC(=O)CCC(=O)Nc1cccc([C@@H](CN2CCCC2)N(C)C(=O)Cc2ccc(Cl)c(Cl)c2)c1 [Example 3i, 2-(3,4-Dichlorophenyl)-N-methyl-N-{(1S)-1-[3-(3-(((iso-butoxycarbonyl)-methyl)aminocarbonyl)propionamido)phenyl]-2-(1-pyrrolidinyl)ethyl}acetamide hydrochloride] | 0.14 |  | Late Phase Formalin, % @ 300 ([2]; rat, in vivo): 23% @ 300 |
| CN(C(=O)Cc1ccc(Cl)c(Cl)c1)[C@H](CN1CCCC1)c1cccc(NC(=O)CCC(=O)NCC(=O)O)c1 [Example 3j, 2-(3,4-Dichlorophenyl)-N-methyl-N-{(1R,S)-1-[3-(3-(((hydroxycarbonyl)-methyl)aminocarbonyl)propionamido)phenyl]-2-(1-pyrrolidinyl)ethyl}acetamide hydrochloride] | 2.3 |  | Late Phase Formalin, % @ 300 ([2]; rat, in vivo): 38% @ 300 |
| CNS(=O)(=O)c1cc(CC(=O)N(C)[C@H](CN2CCCC2)c2ccccc2)ccc1Cl.Cl [Example 3l, 2-[3-(N-Methylsulfamoyl)-4-chlorophenyl]-N-methyl-N-{[1S]-1-phenyl-2-[1-pyrrolidinyl]ethyl}acetamide hydrochloride] | 3.8 |  | Late Phase Formalin, % @ 300 ([2]; rat, in vivo): 73% @ 300 |
| COC(=O)CNC(=O)c1ccccc1CC(=O)N(C)[C@H](CN1CCCC1)c1ccccc1 [Example 3mm, Methyl N-[2-(2-pheny)-N-methyl-N-{[1S]-1-phenyl-2-(1-pyrrolidinyl)ethyl}acetamido]2-oxo-glycinate hydrochloride] | 16.4 |  | Late Phase Formalin, % @ 300 ([2]; rat, in vivo): 53% @ 300 |
| CNS(=O)(=O)c1cccc(CC(=O)N(C)[C@H](CN2CCCC2)c2ccccc2)c1OC [Example 3u] | 1 |  | Late Phase Formalin, % @ 300 ([2]; rat, in vivo): 48% @ 300 |
| COc1ccc(CC(=O)N(C)[C@H](CN2CCCC2)c2ccccc2)cc1NS(C)(=O)=O [Example 122, 2-(3-N-Methylsulfonamido-3-amino-4-methoxyphenyl)-N-methyl-N-[(1S)-1-phenyl-2-(1-pyrrolidinyl)ethyl]acetamide methane sulfonate] | 0.8 | 85 |  |
| CN(C(=O)Cc1ccc(OCc2ccccc2)c(NS(C)(=O)=O)c1)[C@H](CN1CCCC1)c1ccccc1 [Example 123, 2-(3-N-Methylsulfonamido-3-amino-4-benzyloxyphenyl)-N-methyl-N-[(1S)-1-phenyl-2-(1-pyrrolidinyl)ethyl]acetamide] | 23.6 | 87 |  |
| CN(C(=O)Cc1ccc(O)c(NS(C)(=O)=O)c1)[C@H](CN1CCCC1)c1ccccc1 [Example 124, 2-(3-N-Methylsulfonamido-3-amino-4-hydroxyphenyl)-N-methyl-N-[(1S)-1-phenyl-2-(1-pyrrolidinyl)ethyl]acetamide] | 5.6 | 77 |  |
| CN(C(=O)Cc1ccccc1NS(C)(=O)=O)[C@H](CN1CC[C@H](O)C1)c1ccccc1 [Example 125, 2-(2-N-Methylsulfonamido-2-aminophenyl)-N-methyl-N-[(1S)-1-phenyl-2-[1-(3S)-(3-hydroxypyrrolidinyl)ethyl]]acetamide] | 5.3 | 81 |  |
| CN(C(=O)Cc1ccc(C(F)(F)F)cc1NS(C)(=O)=O)[C@H](CN1CC[C@H](O)C1)c1ccccc1 [Example 126, 2-(2-N-Methylsulfonamido-2-amino-4-trifluoromethylphenyl)-N-methyl-N-[(1S)-1-phenyl-2-[1-(3S)-(3-hydroxypyrrolidinyl)ethyl]]acetamide] | 0.61 | 93 |  |
| COc1ccc(CC(=O)N(C)[C@H](CN2CC[C@H](O)C2)c2ccccc2)cc1NS(C)(=O)=O [Example 127, 2-(3-N-Methylsulfonamido-3-amino-4-methoxyphenyl)-N-methyl-N-[(1S)-1-phenyl-2-[1-(3S)-(3-hydroxypyrrolidinyl)ethyl]]acetamide] | 0.82 | 94 |  |
| CN(C(=O)Cc1ccc(O)c(N(S(C)(=O)=O)S(C)(=O)=O)c1)[C@H](CN1CCCC1)c1ccccc1 [Example 130, 2-(3-N-Bis-methylsulfonamido-3-amino-4-hydroxyphenyl)-N-methyl-N-[(1S)-1-phenyl-2-(1-pyrrolidinyl)ethyl]acetamide] | 1.3 | 46 |  |
| CN(C(=O)Cc1cc2c(cc1S(=O)(=O)N(C)C)OCO2)[C@H](CN1CCCC1)c1ccccc1 [Example 132, 2-[2-(N-Dimethylsulfamoyl)-4,5-methylenedioxyphenyl]-N-methyl-N-[(1S)-1-phenyl-2-[(1-pyrrolidinyl)ethyl]]acetamide] | 0.25 | 100 |  |
| CN(C(=O)Cc1cc2c(cc1S(=O)(=O)N(C)C)OCO2)[C@H](CN1CC[C@H](O)C1)c1ccccc1 [Example 133, 2-[2-(N-Dimethylsulfamoyl)-4,5-methylenedioxyphenyl]-N-methyl-N-[(1S)-1-phenyl-2-[1-(3S)-(3-hydroxypyrrolidinyl)ethyl]]acetamide] |  | 98 | Ki [1, 3]: 0.64 nM |
| COc1cc(CC(=O)N(C)[C@H](CN2CCCC2)c2ccccc2)c(S(=O)(=O)N2CCCC2)cc1OC [Example 134, 2-[2-(N-Pyrrolidinesulfamoyl)-4,5-dimethoxyphenyl]-N-methyl-N-[(1S)-1-phenyl-2-[(1-pyrrolidinyl)ethyl]]acetamide] | 0.26 | 99 |  |
| COc1cc(CC(=O)N(C)[C@H](CN2CCCC2)c2ccccc2)c(S(=O)(=O)N(C)C)cc1OC [Example 136, 2-[2-(N-Dimethylsulfamoyl)-4,5-dimethoxyphenyl]-N-methyl-N-[(1S)-1-phenyl-2-[(1-pyrrolidinyl)ethyl]]acetamide] | 0.44 | 97 |  |
| COc1cc(CC(=O)N(C)[C@H](CN2CCCC2)c2ccccc2)c(S(=O)(=O)N2CCN(C)CC2)cc1OC [Example 138] |  | 80 | Ki [1, 3]: 1.3 nM |
| COc1cc(CC(=O)N(C)[C@H](CN2CC[C@H](O)C2)c2ccccc2)c(S(=O)(=O)N2CCOCC2)cc1OC [Example 141, 2-[2-N-(Morpholinesulfamoyl)-4,5-dimethoxyphenyl]-N-methyl-N-[(1S)-1-phenyl-2-[1-(3S)-(3-hydroxypyrrolidinyl)ethyl]]acetamide] | 1.3 | 98 |  |
| COc1cc(CC(=O)N(C)[C@H](CN2CCCC2)c2ccccc2)c(S(=O)(=O)N2CCCC2)c(OC)c1OC [Example 143, 2-[2-(N-Pyrrolidinesulfamoyl)-3,4,5-trimethoxyphenyl]-N-methyl-N-[(1S)-1-phenyl-2-[(1-pyrrolidinyl)ethyl]]acetamide] |  | 98 | Ki [1, 3]: 2.1 nM |
| CNS(=O)(=O)c1cc(OC)ccc1CC(=O)N(C)[C@H](CN1CCCC1)c1ccccc1 [Example 145, 2-[2-(N-Methylsulfamoyl)-4-methoxyphenyl]-N-methyl-N-[(1S)-1-phenyl-2-[(1-pyrrolidinyl)ethyl]]acetamide] |  | 83 | Ki [1, 3]: 20.5 nM |
| CNS(=O)(=O)c1ccc(CC(=O)N(C)[C@H](CN2CC[C@H](O)C2)c2ccccc2)cc1 [Example 146, 2-[4-N-(Methylsulfamoyl)-phenyl]-N-methyl-N-[(1S)-1-phenyl-2-[1-(3S)-(3-hydroxypyrrolidinyl)ethyl]]acetamide] | 1 | 52 |  |
| CN(C(=O)Cc1ccc(Cl)c(Cl)c1)[C@H]1c2cc(NC(=O)/C=C\C(=O)O)ccc2CC[C@@H]1N1CCCC1 [II-24] |  |  | Ki ([1]; Ki (nM) [3H] Diprenorphin κ): 28 nM; Late Phase Formalin, % @ 300 μg ([2]; rat, in vivo): 69% @ 300 μg |
| (S)-2-(2-N-Methylsulfonamido-2-aminophenyl)-N-methyl-N-1-(4-hydroxyphenyl)-2-(1-pyrrolidinyl)ethyl]acetamide [Example 129B] |  | >46 | Ki [1, 3]: 75 nM |
